Assays:
[1] = test system: lamina 110 neurons in spinal cord slices; assay: Patch clamp recordings of sEPSCs in spinal cord slices; type: cell-based, mouse; conditions: Nivolumab 300 ng/ml
[2] = test system: DRG neurons and sciatic nerve fibers; assay: Nivolumab binding in mouse DRG and sciatic nerve sections
Procedure: FIG. 10 (Supp. FIG. 2). […] Human IgG included as a control. *P<0.05, vs. human IgG/PD-L1, repeated measures Two-Way ANOVA, n=4 mice/group. Arrows indicate drug injections. Human IgG or monoclonal antibody injected 30 min prior to injection of PD-L1. BL, baseline. […] Arrows indicate nerve fibers. Data are mean s.e.m.
Immunohistochemistry in mouse and human tissues and quantification. After appropriate survival times, mice were deeply anesthetized with isoflurane and perfused through the ascending aorta with PBS, followed by 4% paraformaldehyde. After the perfusion, the L4-L5 spinal cord segments, L4-L5 DRGs, sciatic nerves, and melanoma tissues were removed and postfixed in the same fixative overnight. Fresh human DRGs (L4-L5) of 4 non-diseased donors from NDRI (National Disease Research Interchange) (Xu, Z Z, et al. 2015) and the attached spinal nerves were immediately fixed upon delivery in fresh 4% paraformaldehyde overnight. Spinal cord, DRG, and nerve tissue sections (10 or 14 μm) and free-floating spinal cord and skin sections (30 μm) were cut in a cryostat. […] The stained sections were examined with a Nikon fluorescence microscope, and images were captured with a CCD Spot camera. […]

[3] = test system: spinal wide dynamic range (WDR) neurons; assay: Extracellular recording of spinal WDR neurons in bone cancer rats in vivo; set-up: species or system rat; conditions: PD-L1 20 μg i.t., day 14; Nivolumab 10 μg i.t., day 8
Procedure: Rat bone cancer pain model. Tumor cells were extracted from the ascetic fluid of rats that received Walker 256 rat mammary gland carcinoma cells, and suspension of 1×10^8/ml tumor cells in PBS was prepared. The inoculation was performed as previously described (Yang, Y, et al. J. Neurosci., 2015, 35:7950-7963). Briefly, rats were anesthetized with sodium pentobarbital (50 mg/kg, intraperitoneal). The right leg was shaved, and the skin was disinfected with iodine tincture and 75% ethanol. A 22-gauge needle was inserted at the site of the intercondylar eminence of the right tibia and was then replaced with a 10 μl microinjection syringe containing a 4 μl suspension of tumor cells (4×10^5). The contents of the syringe were slowly injected into the tibia cavity. To prevent leakage of cells outside the bone, the injection site was sealed with bone wax. […]
Extracellular recording in rat spinal cord in vivo. […] The electrocardiogram was monitored, and the heart rate was maintained at 250-300/min. […] WDR neurons responding to innocuous stimulation and to a greater degree, noxious stimulation of the RF were analyzed in the present study. The recorded signals were amplified with a microelectrode amplifier (1800 A-M System, USA) and fed to computer via a CED 1401 interface for off-line analysis using the Spike 2 software (Cambridge Electronic Design, Cambridge, UK). […]

[4] = PD-L1 30 ng/ml, sPD-1 30 ng/ml perfusion, 3 h

Nivolumab: FDA-approved fully humanized IgG4 monoclonal anti-PD-1 antibody, Bristol-Myers Squibb
effect on PD-L1's inhibition of sEPSC frequency ([1]; 3 h incubation): blocked
amplitude of spontaneous EPSCs (sEPSCs) [1, 4]: not amplitude
frequency of spontaneous EPSCs (sEPSCs) [1, 4]: increased sEPSC frequency
binding in Pd1 knockout mice ([2]; Pd1−/− mice): absent
binding in wild-type (WT) mouse tissue ([2]; WT mice): binding on DRG neurons and sciatic nerve fibers
activity of WDR neurons in bone cancer rats [3]: enhanced activities of WDR neurons

From US11007250B2, “Methods and kits for treating pain” (Duke University, priority 2017, dated 2021)
